Where two headings read alike, the source gives them in different places.
Experiments:
JAK1 = biological target: T1, JAK1 (Homo sapiens, UniProt P23458); assay: Biochemical JAK1 kinase assay (LanthaScreen); settings: for Ki: read-out: JAK 1 (pKi) (converted)
T1 construct: GST; purchased Life Technologies
Procedure, shortened: (§1)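 GST-JAK + GFP-STAT1 peptide + cpd, 1 h preinc RT; ATP start, 1% DMSO, 1 h RT; stop 10 mM EDTA + 2 nM Tb-anti-pSTAT1; 1 h; TR-FRET 520/495. % inhib vs DMSO/background → IC50 (4-PL) → pKi (Cheng-Prusoff).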

JAK2 = biological target: T2, JAK2 (Homo sapiens, UniProt O60674); assay: Biochemical JAK2 kinase assay (LanthaScreen); settings: for Ki: read-out: JAK 2 (pKi) (converted)
T2 construct: GST; purchased Life Technologies
Description: (§2) A panel of four LanthaScreen JAK biochemical assays (JAK1, 2, 3 and Tyk2) were carried in a common kinase reaction buffer (50 mM HEPES, pH 7.5, 0.01% Brij-35, 10 mM MgCl2, and 1 mM EGTA). Recombinant GST-tagged JAK enzymes and a GFP-tagged STAT1 peptide substrate were obtained from Life Technologies.
(§3) Serially or discretely diluted compounds were pre-incubated with each of the four JAK enzymes and the substrate in white 384-well microplates (Corning) at ambient temperature for 1 h. ATP was subsequently added to initiate the kinase reactions in 10 μL total volume, with 1% DMSO. […] Kinase reactions were allowed to proceed for 1 hour at ambient temperature before a 10 μL preparation of EDTA (10 mM final concentration) and Tb-anti-pSTAT1 (pTyr701) antibody (Life Technologies, 2 nM final concentration) in TR-FRET dilution buffer (Life Technologies) was added. The plates were allowed to incubate at ambient temperature for 1 h before being read on the EnVision reader (Perkin Elmer).
(§4) For dose-response analysis, percent inhibition data were plotted vs. compound concentrations, and IC50 values were determined from a 4-parameter robust fit model with the Prism software (GraphPad Software). Results were expressed as pIC50 (negative logarithm of IC50) and subsequently converted to pKi (negative logarithm of dissociation constant, Ki) using the Cheng-Prusoff equation.

Tyk2 = biological target: T3, Tyk2 (Homo sapiens, UniProt P29597); assay: Biochemical Tyk2 kinase assay (LanthaScreen); settings: for Ki: read-out: Tyk 2 (pKi) (converted)
T3 construct: GST; purchased Life Technologies
Description: as §2
as §3, with “Elmer). Emission ratio signals (520 nm/495 nm) were recorded and utilized to calculate the percent inhibition values based on DMSO and background controls.” for “Elmer).”
as §4

[1] = tested on: IL-2 stimulated pSTAT5 in Tall-1 T cells; assay: Cellular JAK3 potency assay: inhibition of IL-2 stimulated pSTAT5 in Tall-1 T cells; assay type: cell-based, human; settings: for IC50: Homo sapiens, read-out: Tall-1 (pIC50) (converted)
Procedure, shortened: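 Inhibition of IL-2-induced pSTAT5 was quantified by AlphaLisa in Tall-1 cell lysates. Compound exposure lasted 1 h before 30 min stimulation with 300 ng/ml IL-2 final.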

JAK3 = biological target: T4, JAK3 (Homo sapiens, UniProt P52333); assay: Biochemical JAK3 kinase assay (LanthaScreen); set-up: GST; purchased Life Technologies; settings: for Ki: read-out: JAK 3 (pKi) (converted)
T4 sequence (P52333 1-1124): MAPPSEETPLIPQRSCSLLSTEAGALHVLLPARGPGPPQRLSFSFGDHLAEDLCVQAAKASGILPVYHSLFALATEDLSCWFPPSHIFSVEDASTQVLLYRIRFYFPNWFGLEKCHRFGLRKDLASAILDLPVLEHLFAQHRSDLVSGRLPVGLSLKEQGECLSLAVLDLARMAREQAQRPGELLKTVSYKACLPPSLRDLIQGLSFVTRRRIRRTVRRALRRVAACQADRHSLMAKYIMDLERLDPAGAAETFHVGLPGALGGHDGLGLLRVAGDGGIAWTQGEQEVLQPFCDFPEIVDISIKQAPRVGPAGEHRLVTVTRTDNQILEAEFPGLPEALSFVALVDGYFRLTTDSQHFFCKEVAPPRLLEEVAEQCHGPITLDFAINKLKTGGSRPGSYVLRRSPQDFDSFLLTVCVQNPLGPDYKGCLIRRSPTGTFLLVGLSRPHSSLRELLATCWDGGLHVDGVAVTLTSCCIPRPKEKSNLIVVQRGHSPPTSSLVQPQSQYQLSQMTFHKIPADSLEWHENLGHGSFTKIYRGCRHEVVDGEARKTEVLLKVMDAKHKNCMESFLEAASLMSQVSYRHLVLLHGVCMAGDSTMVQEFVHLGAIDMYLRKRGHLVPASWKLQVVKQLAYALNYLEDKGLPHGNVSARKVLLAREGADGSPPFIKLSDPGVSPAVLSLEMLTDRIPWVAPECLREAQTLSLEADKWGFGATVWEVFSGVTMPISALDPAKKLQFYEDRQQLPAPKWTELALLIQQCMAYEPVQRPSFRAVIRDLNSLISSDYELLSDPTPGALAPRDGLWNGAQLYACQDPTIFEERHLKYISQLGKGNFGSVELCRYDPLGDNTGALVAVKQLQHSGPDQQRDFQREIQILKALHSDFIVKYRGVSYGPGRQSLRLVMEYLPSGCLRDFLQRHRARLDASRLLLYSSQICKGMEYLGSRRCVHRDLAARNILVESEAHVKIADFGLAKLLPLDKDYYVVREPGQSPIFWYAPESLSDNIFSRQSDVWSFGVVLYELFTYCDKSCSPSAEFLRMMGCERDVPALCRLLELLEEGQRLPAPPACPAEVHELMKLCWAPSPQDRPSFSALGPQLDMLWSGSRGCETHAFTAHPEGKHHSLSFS
Procedure, shortened: as §1

[2] = selectivity JAK3 over JAK1, difference of pKi
[3] = TALL-1, IL-2 stimulated pSTAT5 in Tall-1 T cells
[4] = selectivity: difference of pKi JAK3 and pKi JAK1
[5] = IL-2 stimulated pSTAT5 in Tall-1 T cells
[6] = TALL-1, IL-2 stimulated pSTAT5, Tall-1 T cells

T1 sequence (P23458 whole entry): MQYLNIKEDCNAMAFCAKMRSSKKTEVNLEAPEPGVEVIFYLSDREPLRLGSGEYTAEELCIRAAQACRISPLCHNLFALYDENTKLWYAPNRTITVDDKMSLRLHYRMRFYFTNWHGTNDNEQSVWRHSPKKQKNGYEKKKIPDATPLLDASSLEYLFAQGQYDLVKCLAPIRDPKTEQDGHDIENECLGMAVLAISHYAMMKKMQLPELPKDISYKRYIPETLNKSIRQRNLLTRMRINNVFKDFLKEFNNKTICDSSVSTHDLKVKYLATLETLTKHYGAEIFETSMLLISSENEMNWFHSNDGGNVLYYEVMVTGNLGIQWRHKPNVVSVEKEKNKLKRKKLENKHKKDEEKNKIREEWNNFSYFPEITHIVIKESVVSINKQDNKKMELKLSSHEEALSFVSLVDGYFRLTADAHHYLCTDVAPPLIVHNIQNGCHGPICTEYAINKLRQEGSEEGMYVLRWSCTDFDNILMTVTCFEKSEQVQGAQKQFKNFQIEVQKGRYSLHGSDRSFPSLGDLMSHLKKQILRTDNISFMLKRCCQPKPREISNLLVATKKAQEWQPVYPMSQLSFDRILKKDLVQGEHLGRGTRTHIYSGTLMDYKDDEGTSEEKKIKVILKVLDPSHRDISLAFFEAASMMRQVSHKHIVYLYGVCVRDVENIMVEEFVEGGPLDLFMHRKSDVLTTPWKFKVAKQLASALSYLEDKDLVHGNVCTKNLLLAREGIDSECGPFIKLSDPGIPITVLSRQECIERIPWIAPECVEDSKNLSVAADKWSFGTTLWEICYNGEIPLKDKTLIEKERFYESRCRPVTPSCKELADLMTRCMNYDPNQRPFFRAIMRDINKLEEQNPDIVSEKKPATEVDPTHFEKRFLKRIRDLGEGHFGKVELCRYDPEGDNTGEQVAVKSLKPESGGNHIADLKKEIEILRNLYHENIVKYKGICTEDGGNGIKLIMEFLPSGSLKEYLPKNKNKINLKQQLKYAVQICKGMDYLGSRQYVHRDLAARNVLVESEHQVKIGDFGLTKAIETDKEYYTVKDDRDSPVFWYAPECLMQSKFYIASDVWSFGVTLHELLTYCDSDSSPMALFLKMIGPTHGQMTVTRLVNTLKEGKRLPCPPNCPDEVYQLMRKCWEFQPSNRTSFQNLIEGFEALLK
T2 sequence (O60674 whole entry): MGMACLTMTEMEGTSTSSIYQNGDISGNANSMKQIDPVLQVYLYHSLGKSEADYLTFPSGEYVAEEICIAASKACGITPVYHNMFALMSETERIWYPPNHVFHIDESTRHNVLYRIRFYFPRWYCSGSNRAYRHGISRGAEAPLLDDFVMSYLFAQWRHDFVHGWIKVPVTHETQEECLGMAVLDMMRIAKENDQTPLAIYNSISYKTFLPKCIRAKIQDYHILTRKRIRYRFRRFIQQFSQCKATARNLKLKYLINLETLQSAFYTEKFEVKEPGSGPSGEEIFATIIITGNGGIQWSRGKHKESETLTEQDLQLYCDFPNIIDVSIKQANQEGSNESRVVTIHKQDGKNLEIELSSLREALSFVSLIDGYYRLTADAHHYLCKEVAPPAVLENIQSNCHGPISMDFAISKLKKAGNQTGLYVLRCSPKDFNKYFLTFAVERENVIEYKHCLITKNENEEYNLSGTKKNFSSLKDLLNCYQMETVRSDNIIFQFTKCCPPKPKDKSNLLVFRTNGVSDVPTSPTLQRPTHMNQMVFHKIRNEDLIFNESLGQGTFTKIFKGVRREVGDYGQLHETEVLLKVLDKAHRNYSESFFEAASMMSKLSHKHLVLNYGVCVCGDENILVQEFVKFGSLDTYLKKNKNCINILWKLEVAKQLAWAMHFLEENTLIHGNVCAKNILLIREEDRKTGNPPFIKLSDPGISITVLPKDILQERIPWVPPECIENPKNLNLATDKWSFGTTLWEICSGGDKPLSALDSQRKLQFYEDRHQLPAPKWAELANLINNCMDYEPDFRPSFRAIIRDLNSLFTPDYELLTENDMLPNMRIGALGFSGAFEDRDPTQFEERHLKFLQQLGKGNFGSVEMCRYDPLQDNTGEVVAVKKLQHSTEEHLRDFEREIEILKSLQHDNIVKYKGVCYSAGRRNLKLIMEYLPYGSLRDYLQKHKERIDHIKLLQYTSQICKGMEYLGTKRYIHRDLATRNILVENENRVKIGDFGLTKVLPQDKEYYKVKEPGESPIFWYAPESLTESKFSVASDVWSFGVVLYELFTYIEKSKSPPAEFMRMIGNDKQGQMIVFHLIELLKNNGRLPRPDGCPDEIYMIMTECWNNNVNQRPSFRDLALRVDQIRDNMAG
T3 sequence (P29597 whole entry): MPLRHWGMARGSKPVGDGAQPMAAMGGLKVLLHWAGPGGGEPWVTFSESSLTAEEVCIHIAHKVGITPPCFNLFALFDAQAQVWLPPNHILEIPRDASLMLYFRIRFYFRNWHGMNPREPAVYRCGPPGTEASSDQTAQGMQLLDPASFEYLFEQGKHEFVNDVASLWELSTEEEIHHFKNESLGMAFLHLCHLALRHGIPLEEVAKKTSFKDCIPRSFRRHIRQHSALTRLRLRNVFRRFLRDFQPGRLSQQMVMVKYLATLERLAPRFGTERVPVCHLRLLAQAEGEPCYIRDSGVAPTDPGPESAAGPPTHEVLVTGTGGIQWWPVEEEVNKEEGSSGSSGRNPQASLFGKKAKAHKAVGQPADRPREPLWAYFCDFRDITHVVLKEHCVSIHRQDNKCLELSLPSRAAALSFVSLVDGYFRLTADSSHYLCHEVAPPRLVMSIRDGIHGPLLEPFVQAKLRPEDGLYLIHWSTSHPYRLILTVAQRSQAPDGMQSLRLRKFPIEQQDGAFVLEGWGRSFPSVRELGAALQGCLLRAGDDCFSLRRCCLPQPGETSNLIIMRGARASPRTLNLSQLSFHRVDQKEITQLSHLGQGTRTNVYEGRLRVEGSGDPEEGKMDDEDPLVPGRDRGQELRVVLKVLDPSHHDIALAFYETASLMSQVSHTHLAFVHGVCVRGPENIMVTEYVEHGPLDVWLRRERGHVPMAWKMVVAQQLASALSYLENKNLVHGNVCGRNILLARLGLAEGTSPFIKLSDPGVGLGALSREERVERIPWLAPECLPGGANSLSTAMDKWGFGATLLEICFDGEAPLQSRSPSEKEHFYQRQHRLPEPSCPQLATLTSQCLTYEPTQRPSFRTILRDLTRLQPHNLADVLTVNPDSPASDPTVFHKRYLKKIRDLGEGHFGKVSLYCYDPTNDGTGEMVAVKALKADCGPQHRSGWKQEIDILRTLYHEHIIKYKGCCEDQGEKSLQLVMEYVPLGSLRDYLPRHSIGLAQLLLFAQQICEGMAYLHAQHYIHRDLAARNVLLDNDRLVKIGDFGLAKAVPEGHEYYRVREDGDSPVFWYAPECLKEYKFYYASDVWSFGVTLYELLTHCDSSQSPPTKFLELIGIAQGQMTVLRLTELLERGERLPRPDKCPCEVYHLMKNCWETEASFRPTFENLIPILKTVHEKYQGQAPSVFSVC

| SMILES | JAK 1 (pKi) (JAK1) | JAK 2 (pKi) (JAK2) | Tyk 2 (pKi) (Tyk2) | Tall-1 (pIC50) ([1]; IL-2 stimulated pSTAT5, Tall-1 T cells) | Ki (JAK3) [nM] | JAK3 (pKi)-JAK1 (pKi) (JAK3; [2]) | Ki (JAK1) [nM] | Ki (JAK2) [nM] | Ki (Tyk2) [nM] | IC50 [1, 3] [nM] | JAK3 (pKi)-JAK1 (pKi) (JAK3; [4]) | Tall-1 (pIC50) [1, 5] | JAK 3 (pKi) (JAK3) | IC50 [1, 6] [nM] |
| --- | --- | --- | --- | --- | --- | --- | --- | --- | --- | --- | --- | --- | --- | --- |
| C=CC(=O)N1CCSC(C(=O)Nc2cc(-c3ccc(O)cc3)cc3[nH]ncc23)C1 (stereo not drawn) [Compound 12-43] | E (a pKi value of 7 or below (Ki of 100 nM or above)) | D (a pKi value between 7 and 8 (Ki between 100 nM and 10 nM)) | E (a pKi value of 7 or below (Ki of 100 nM or above)) | A (a pIC50 value≥7.5 (IC50≤32 nM)) | < 0.1 | A (a value of 3 or above) |  |  |  |  |  |  |  |  |
| CCC1(COc2cc(-c3ccc(O)c(Cl)c3)cc3[nH]ncc23)CN(C(=O)/C=C/CN(C)C)C1 [Compound 3-15] |  |  |  |  | < 0.1 |  | > 100 | > 100 | > 100 | 31.6 to 200 | A (a value of 3 or above) |  |  |  |
| CN(C)C/C=C/C(=O)N1CC(C#N)(COc2nc(-c3ccc(O)c(F)c3)cc3[nH]ncc23)C1 [Compound 3-106] | E (a pKi value of 7 or below (Ki of 100 nM or above)) | E (a pKi value of 7 or below (Ki of 100 nM or above)) | E (a pKi value of 7 or below (Ki of 100 nM or above)) |  |  |  |  |  |  |  | A (a value of 3 or above) | B (a pIC50 value between 6.7 (included) and 7.5 (IC50 between 200 nM and 32 nM)) | B (a pKi value between 9 and 10 (Ki between 1 nM and 0.1 nM)) |  |
| C=CC(=O)N1CC(Oc2cc(-c3ccc(O)c(F)c3)cc3[nH]ncc23)C1 [Compound 5-6] | E (a pKi value of 7 or below (Ki of 100 nM or above)) | E (a pKi value of 7 or below (Ki of 100 nM or above)) | E (a pKi value of 7 or below (Ki of 100 nM or above)) |  |  |  |  |  |  |  | A (a value of 3 or above) | B (a pIC50 value between 6.7 (included) and 7.5 (IC50 between 200 nM and 32 nM)) | B (a pKi value between 9 and 10 (Ki between 1 nM and 0.1 nM)) |  |
| C=CC(=O)N1CC(C#N)(COc2cc(-c3ccc(O)c(F)c3)cc3[nH]ncc23)C1 [Compound 3-23] | E (a pKi value of 7 or below (Ki of 100 nM or above)) | D (a pKi value between 7 and 8 (Ki between 100 nM and 10 nM)) | E (a pKi value of 7 or below (Ki of 100 nM or above)) |  |  |  |  |  |  |  | A (a value of 3 or above) | B (a pIC50 value between 6.7 (included) and 7.5 (IC50 between 200 nM and 32 nM)) | A (a pKi value≥10 (Ki≤0.1 nM)) |  |
| CN1CCC[C@@H]1/C=C/C(=O)N1CC(COc2cc(-c3ccc(O)cc3)cc3[nH]ncc23)C1 [Compound 3-85] |  |  |  |  | < 0.1 |  | > 100 | 10 to 100 | > 100 | < 31.6 | A (a value of 3 or above) |  |  |  |
| CC1C(COc2cc(-c3ccc(O)cc3)cc3[nH]ncc23)CN1C(=O)/C=C/CN(C)C (stereo not drawn) [Compound 3-30] | E (a pKi value of 7 or below (Ki of 100 nM or above)) | D (a pKi value between 7 and 8 (Ki between 100 nM and 10 nM)) | E (a pKi value of 7 or below (Ki of 100 nM or above)) |  |  |  |  |  |  |  | A (a value of 3 or above) | B (a pIC50 value between 6.7 (included) and 7.5 (IC50 between 200 nM and 32 nM)) | A (a pKi value≥10 (Ki≤0.1 nM)) |  |
| C=CC(=O)N1CCSC[C@H]1C(=O)Nc1cc(-c2ccc(O)cc2)cc2[nH]ncc12 [Compound 12-64] |  |  |  |  | < 0.1 | A (a value of 3 or above) | > 100 | > 100 | > 100 |  |  |  |  | < 31.6 |
| C=CC(=O)N1CC(F)(C(=O)Nc2cc(-c3ccc(O)cc3)cc3[nH]ncc23)C1 [Compound 12-48] |  |  |  |  | 0.1 to 1 | A (a value of 3 or above) | > 100 | > 100 | > 100 |  |  |  |  | < 31.6 |
| C=CC(=O)N1CC(F)(COc2nc(-c3ccc(O)c(F)c3)cc3[nH]ncc23)C1 [Compound 3-49] |  |  |  |  | 0.1 to 1 |  | > 100 | 10 to 100 | > 100 | < 31.6 | B (a value of 2.3 to 3) |  |  |  |
| C=CC(=O)N1CC[C@H](Oc2cc(-c3ccc(O)cc3)cc3[nH]nc(C#N)c23)C1 [Compound 1-45] |  |  |  |  | < 0.1 |  | > 100 | > 100 | > 100 | < 31.6 | A (a value of 3 or above) |  |  |  |
| C=CC(=O)N1CC[C@H](COc2cc(-c3ccc(O)cc3)cc3[nH]nnc23)C1 [Compound 23, (S)-1-(3-(((6-(4-hydroxyphenyl)-1H-benzo[d][1,2,3]triazol-4-yl)oxy)methyl)pyrrolidin-1-yl)prop-2-en-1-one] |  |  |  |  | < 0.1 |  | > 100 | 10 to 100 | > 100 | 31.6 to 200 | A (a value of 3 or above) |  |  |  |

Reference: patent publication US10392368B2, “Pyrazolo and triazolo bicyclic compounds as JAK kinase inhibitors” (THERAVANCE BIOPHARMA R&D IP, LLC, priority 2017, dated 2019)
